Experimental data published in patent publication US3932400A, “Thiazole derivatives” (Sumitomo Chemical Company, Limited, priority 1972, dated 1976).

Legend:
[1] = test system: male mice; assay type: in vivo; details: intravenous; 10 male mice; up and down method
[2] = test system: β-adrenergic receptor; assay: β-adrenergic receptor blocking activity in open chest dog; assay type: in vivo; details: relative to propranolol = 1, pentbarbital-anesthetized open chest dog; for β-adrenergic receptor blocking activity in open chest dog (propranolol = 1), DDE: depressive effect on depressor effect (DDE) induced by intravenous isoproternol; for β-adrenergic receptor blocking activity in open chest dog (propranolol = 1), DPC: depressive effect on positive chronotropic (DPC) effect induced by intravenous isoproternol; for β-adrenergic receptor blocking activity in open chest dog (propranolol = 1), DPI: depressive effect on positive inotropic (DPI) effect induced by intravenous isoproternol
Description: Note: A determination of β-adrenergic receptor blocking activity of test compounds in open chest dog was as follows. Thus dogs were anesthetized with pentbarbital sodium (administrated 30 - 40 mg./kg. intraveneously). Heart rate, myocardial contractile force and blood pressure were recorded with NIHON KODEN RM-150 polygraph. A depressive effect of test compounds on positive chronotropic (DPC), positive inotropic (DPI) and depressor effect (DDE) induced by isoproternol, which was injected intraveneously at a quarter interval, was determined.

| SMILES | Acute toxicity LD50 [1] [mg/kg] | β-adrenergic receptor blocking activity in open chest dog (propranolol = 1), DDE [2] | β-adrenergic receptor blocking activity in open chest dog (propranolol = 1), DPC [2] | β-adrenergic receptor blocking activity in open chest dog (propranolol = 1), DPI [2] |
| --- | --- | --- | --- | --- |
| CC(C)(C)NCC(O)CSc1nc(-c2ccc(C(N)=O)s2)cs1 (stereo not shown) [Example 37, 2-(3'-t-butylamino-2'-hydroxypropylthio)-4-(5'-carbamoyl-2'-thienyl)thiazole] | 86 | 8 | 15 | 15 |
| CC(=O)Nc1ccc(OCC(O)CNC(C)C)cc1 (stereo not shown) [Practolol, reference compound] |  | 0.08 | 0.5 | 0.7 |
